What was measured:
Assay type in all cases: cell-based
[1] = system: RKO p27 or p21 induced (arrested) colon adenocarcinoma cells; test: Alamar Blue cell viability assay, RKO p27 or p21 induced (arrested); details: Homo sapiens, RKOp27, Table B2, cells arrested by Ponasterone A, 72 hours, read-out: −log EC50 RKO p27 or p21 induced (arrested) (converted)
Method: (§1) To determine the cell cycle specific mode of action, subclones of RKO colon adenocarcinoma cells (RKOp21 or RKOp27 as described by Schmidt et al. in Oncogene 19, 2423-2429; 2000) are seeded into 96 well flat bottom plates at a density of 16000 cells per well in a volume of 50 μl per well in DMEM growth medium with 10% FCS containing 10 μM Ponasterone A. 24 hours after seeding the 50 μl each of the compound dilutions in DMEM medium are added into each well of the 96-well plate. Each compound dilution is tested as triplicates. Wells containing untreated control cells are filled with 50 μl DMEM medium containing 1% DMSO. The cells are then incubated with the substances for 72 hours at 37° C. in a humidified atmosphere containing 5% carbon dioxide. To determine the viability of the cells, 10 μl of an Alamar Blue solution (Biosource) are added and the fluorescence is measured at an extinction of 544 nm and an emission of 590 nm. For the calculation of the cell viability the emission value from untreated cells is set as 100% viability and the emission rates of treated cells are set in relation to the values of untreated cells. Viabilities are expressed as % values. The Graphpad Prism program (GraphPad Software, Inc) is used for the calculation of EC50 values out of the obtained dose-response curves. Viability is compared of proliferating cells grown in the absence of the inducer Ponasterone A, versus viability of cells arrested by the expression of ectopic p27Kip1 induced by Ponasterone A.
(§2) Representative values for anti-proliferation/cytotoxicity [measured as −log EC50 (mol/l)] determined in the aforementioned assays follow from the following tables B1, B2 and B3, in which the numbers of the compounds correspond to the numbers of the examples.

[2] = system: RKO p27 or p21 uninduced (proliferating) colon adenocarcinoma cells; test: Alamar Blue cell viability assay, RKO p27 or p21 uninduced (proliferating); details: Homo sapiens, RKOp27, 72 h, Table B2, anti-proliferative/cytotoxic activity, read-out: −log EC50 RKO p27 or p21 uninduced (proliferating) (converted)
Method: The anti-proliferative/cytotoxic activity of the compounds described herein can be tested on subclones of RKO human colon adenocarcinoma cells (Schmidt et al., Oncogene 19, 2423-2429; 2000) using the Alamar Blue cell viability assay (described in O'Brien et al. Eur J Biochem 267, 5421-5426, 2000). The compounds are dissolved as 10 mM solutions in DMSO and subsequently diluted in semi-logarithmic steps. DMSO dilutions are further diluted 1:100 into Dulbecco's modified Eagle's medium (DMEM) containing 10% fetal calf serum to a final concentration twice as much as the final concentration in the test. RKO subclones are seeded into 96 well flat bottom plates at a density of 4000 cells per well in a volume of 50 μl per well. 24 hours after seeding the 50 μl each of the compound dilutions in DMEM medium are added into each well of the 96 well plate. Each compound dilution is tested as triplicates. Wells containing untreated control cells are filled with 50 μl DMEM medium containing 1% DMSO. The cells are then incubated with the substances for 72 hours at 37° C. in a humidified atmosphere containing 5% carbon dioxide. To determine the viability of the cells, 10 μl of an Alamar Blue solution (Biosource) are added and the fluorescence is measured at an extinction of 544 nm and an emission of 590 nm. For the calculation of the cell viability the emission value from untreated cells is set as 100% viability and the emission rates of treated cells are set in relation to the values of untreated cells. Viabilities are expressed as % values. The Graphpad Prism program is used for the calculation of EC50 values for anti-proliferative/cytotoxic activity out of the obtained dose-response curves.
as §1, §2

[3] = system: RKO p21 uninduced (proliferating) colon adenocarcinoma cells; test: Alamar Blue cell viability assay, RKO p21 uninduced (proliferating); details: Homo sapiens, Table B3, anti-proliferative/cytotoxic activity, 72 hours, read-out: −log EC50 RKO p21 uninduced (proliferating) (converted)
How it was run: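 Viability read by Alamar Blue fluorescence (ex 544, em 590 nm), normalised to untreated wells, after 72 h, 37° C, 5% CO2 compound exposure in triplicate. Cells were uninduced (no Ponasterone A), proliferating RKO colon carcinoma p27 or p21 subclones in DMEM with 10% FCS; values are −log EC50 (mol/l).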

## C=CCN(C)CCN1C(=O)N2[C@H](c3cccc(O)c3)c3[nH]c4ccc(OC)cc4c3C[C@@]2(C)C1=O (racemic) [Example 80, (3aSR,10RS)-2-[2-(Allyl-methyl-amino)-ethyl]-10-(3-hydroxy-phenyl)-6-methoxy-3a-methyl-3a,4,9,10-tetrahydro-2,9,10a-triaza-cyclopenta[b]fluorene-1,3-dione]
[1]
  EC50: ≥ 3160 nM
[2]
  EC50: ≤ 39.8 nM

## COc1ccc2[nH]c3c(c2c1)C[C@@]1(C)C(=O)N(CCCN2CCOCC2)C(=O)N1[C@@H]3c1cccc(O)c1 (racemic) [Example 148, (3aSR,10RS)-10-(3-Hydroxy-phenyl)-6-methoxy-3a-methyl-2-(3-morpholin-4-yl-propyl)-3a,4,9,10-tetrahydro-2,9,10a-triaza-cyclopenta[b]fluorene-1,3-dione]
[1]
  EC50: ≥ 316 nM
[2]
  EC50: ≤ 39.8 nM

## CCN(C)CCCN1C(=O)N2[C@H](c3cccc(O)c3)c3[nH]c4ccc(OC)cc4c3C[C@@]2(C)C1=O (racemic) [Example 77, (3aSR,10RS)-2-[3-(Ethyl-methyl-amino)-propyl]-10-(3-hydroxy-phenyl)-6-methoxy-3a-methyl-3a,4,9,10-tetrahydro-2,9,10a-triaza-cyclopenta[b]fluorene-1,3-dione]
[1]
  EC50: ≥ 3160 nM
[2]
  EC50: ≤ 39.8 nM

## COc1ccc2[nH]c3c(c2c1)C[C@@]1(C)C(=O)N(CCCN2CCC2)C(=O)N1[C@@H]3c1cccc(O)c1 (racemic) [Example 87, (3aSR,10RS)-2-(3-Azetidin-1-yl-propyl)-10-(3-hydroxy-phenyl)-6-methoxy-3a-methyl-3a,4,9,10-tetrahydro-2,9,10a-triaza-cyclopenta[b]fluorene-1,3-dione]
[1]
  EC50: ≥ 3160 nM
[2]
  EC50: ≤ 39.8 nM

## CN(CCO)CCCN1C(=O)N2[C@H](c3cccc(O)c3)c3[nH]c4ccc(Cl)cc4c3C[C@@]2(C)C1=O (racemic) [Example 132, (3aSR,10RS)-6-Chloro-2-{3-[(2-hydroxy-ethyl)-methyl-amino]-propyl}-10-(3-hydroxy-phenyl)-3a-methyl-3a,4,9,10-tetrahydro-2,9,10a-triaza-cyclopenta[b]fluorene-1,3-dione]
[1]
  EC50: ≥ 316 nM
[2]
  EC50: ≤ 39.8 nM

## C[C@@]12Cc3c([nH]c4ccc(Cl)cc34)[C@@H](c3cccc(O)c3)N1C(=O)N(CCCCl)C2=O (racemic) [Example 57, (3aSR,10RS)-6-Chloro-2-(3-chloro-propyl)-10-(3-hydroxy-phenyl)-3a-methyl-3a,4,9,10-tetrahydro-2,9,10a-triaza-cyclopenta[b]fluorene-1,3-dione]
[1]
  EC50: ≥ 316 nM
[2]
  EC50: 39.8 to 251 nM

## COc1ccc2[nH]c3c(c2c1)C[C@@]1(C)C(=O)N(CCN(C)C(C)C)C(=O)N1[C@@H]3c1cccc(O)c1 (racemic) [Example 70, (3aSR,10RS)-10-(3-Hydroxy-phenyl)-2-[2-(isopropyl-methyl-amino)-ethyl]-6-methoxy-3a-methyl-3a,4,9,10-tetrahydro-2,9,10a-triaza-cyclopenta[b]fluorene-1,3-dione]
[1]
  EC50: ≥ 3160 nM
[2]
  EC50: ≤ 39.8 nM

## C#CCN(C)CCN1C(=O)N2[C@H](c3cccc(O)c3)c3[nH]c4ccc(OC)cc4c3C[C@@]2(C)C1=O (racemic) [Example 81, (3aSR,10RS)-10-(3-Hydroxy-phenyl)-6-methoxy-3a-methyl-2-[2-(methyl-prop-2-ynyl-amino)-ethyl]-3a,4,9,10-tetrahydro-2,9,10a-triaza-cyclopenta[b]fluorene-1,3-dione]
[1]
  EC50: ≥ 3160 nM
[2]
  EC50: ≤ 39.8 nM

## CCOc1ccc2[nH]c3c(c2c1)C[C@@]1(C)C(=O)N(CCNC(C)C)C(=O)N1[C@@H]3c1cccc(O)c1 (racemic) [Example 152, (3aSR,10RS)-6-Ethoxy-10-(3-hydroxy-phenyl)-2-(2-isopropylamino-ethyl)-3a-methyl-3a,4,9,10-tetrahydro-2,9,10a-triaza-cyclopenta[b]fluorene-1,3-dione]
[3]
  EC50: ≤ 39.8 nM

## C=CCN(C)CCN1C(=O)N2[C@H](c3cccc(O)c3)c3[nH]c4ccc(OC(F)F)cc4c3C[C@@]2(C)C1=O (racemic) [Example 290, (3aSR,10RS)-2-[2-(Allyl-methyl-amino)-ethyl]-6-(1,1-difluoro-methoxy)-10-(3-hydroxy-phenyl)-3a-methyl-3a,4,9,10-tetrahydro-2,9,10a-triaza-cyclopenta[b]fluorene-1,3-dione]
[3]
  EC50: 39.8 to 251 nM

## C=CCN(C)CCCN1C(=O)N2[C@H](c3cccc(O)c3)c3[nH]c4ccc(Cl)cc4c3C[C@@]2(C)C1=O (racemic) [Example 169, (3aSR,10RS)-2-[3-(Allyl-methyl-amino)-propyl]-6-chloro-10-(3-hydroxy-phenyl)-3a-methyl-3a,4,9,10-tetrahydro-2,9,10a-triaza-cyclopenta[b]fluorene-1,3-dione]
[3]
  EC50: ≤ 39.8 nM

## CN1CCN(CCCN2C(=O)N3[C@H](c4cccc(O)c4)c4[nH]c5ccc(OC(F)F)cc5c4C[C@@]3(C)C2=O)CC1 (racemic) [Example 240, (3aSR,10RS)-6-(1,1-Difluoro-methoxy)-10-(3-hydroyx-phenyl)-3a-methyl-2-[3-(4-methyl-piperazin-1-yl)-propyl]-3a,4,9,10-tetrahydro-2,9,10a-triaza-cyclopenta[b]fluorene-1,3-dione]
[3]
  EC50: 39.8 to 251 nM

## CN(CCO)CCN1C(=O)N2[C@H](c3cccc(O)c3)c3[nH]c4ccc(OC(F)F)cc4c3C[C@@]2(C)C1=O (racemic) [Example 288, (3aSR,10RS)-6-(1,1-Difluoro-methoxy)-2-{2-[(2-hydroxy-ethyl)-methyl-amino]-ethyl}-10-(3-hydroxy-phenyl)-3a-methyl-3a,4,9,10-tetrahydro-2,9,10a-triaza-cyclopenta[b]fluorene-1,3-dione]
[3]
  EC50: 39.8 to 251 nM

## C=CCN(C)CCCN1C(=O)N2[C@H](c3cccc(O)c3)c3[nH]c4ccc(Br)cc4c3C[C@@]2(C)C1=O (racemic) [Example 371, (3aSR,10RS)-2-[3-(Allyl-methyl-amino)-propyl]-6-bromo-10-(3-hydroxy-phenyl)-3a-methyl-3a,4,9,10-tetrahydro-2,9,10a-triaza-cyclopenta[b]fluorene-1,3-dione]
[3]
  EC50: ≤ 39.8 nM

## COc1ccc2[nH]c3c(c2c1)C[C@@]1(C)C(=O)N(CCCN(C)C)C(=O)N1[C@@H]3c1cccc(O)c1 [Example 540, (3aS,10R)-2-(3-Dimethylamino-propyl)-10-(3-hydroxy-phenyl)-6-methoxy-3a-methyl-3a,4,9,10-tetrahydro-2,9,10a-triaza-cyclopenta[b]fluorene-1,3-dione]
[3]
  EC50: ≤ 39.8 nM

## CNCCN1C(=O)N2[C@H](c3cccc(O)c3)c3[nH]c4cc(F)c(Cl)cc4c3C[C@@]2(C)C1=O (racemic) [Example 337, (3aSR,10RS)-6-Chloro-7-fluoro-10-(3-hydroxy-phenyl)-3a-methyl-2-(2-methylamino-ethyl)-3a,4,9,10-tetrahydro-2,9,10a-triaza-cyclopenta[b]fluorene-1,3-dione]
[3]
  EC50: ≤ 39.8 nM

## C[C@@]12Cc3c([nH]c4ccc(Cl)cc34)[C@@H](c3cccc(O)c3)N1C(=O)N(CCCN1CCCCC1)C2=O (racemic) [Example 181, (3aSR,10RS)-6-Chloro-10-(3-hydroxy-phenyl)-3a-methyl-2-(3-piperidin-1-yl-propyl)-3a,4,9,10-tetrahydro-2,9,10a-triaza-cyclopenta[b]fluorene-1,3-dione]
[3]
  EC50: ≤ 39.8 nM

— patent publication US8530493B2, “Indolopyridines as Eg5 kinesin modulators” (4SC AG, priority 2006, dated 2013)
